“Also recorded” adds a separate entry of the source.
Key:
[1] = tested on: opossum kidney (OK) cell; assay: Renal tubular (OK) cell proliferation, CellTiter 96 at OD570; format: cell-based; conditions: compound added to OK cells, 0-60 nM (0-79 nM) or various concentrations, three days incubation (24 hours in Example 3.2)
Description: Flavonol Increased Renal Tubular Cell Proliferation Ok cells at 1×10^4/ml (0.1 ml) were added into 96 wells plate. Several flavonol ? Fisetin, ? Kaempferol, ? quercetin a ? ? icariin or the control flavonoid (which are not flavonol) such as apigenin and kaempferol-3-methyl ether were added to make the final concentration at 0-60 nM. (0-79 nM)
After three days incubation, the cell growth was examined with CellTiter 96 (Non-Radioactive Cell Proliferation Assay kit) (Promega) at OD570 nm. The higher OD, the higher the numbers of living cells. (FIG. 2.)
OK cell, MC 3T3 E1 and HHF cells at 2×10^4/ml (0.1 ml) were added into 96 well plates, with various concentration of kaempferol was applied. After the cells were cultured for 3 days, cell growth was examined.
Preparation of OKM and CM: OK cells at 2×10^4/ml (0.1 ml) mixed with various concentrations of kaempferol were incubated in 96 well plate. The medium made of the same condition as above without OK cells was also incubated in the 96 well plates. After 24 hour, the mediums were collected. The OK cell growth was examined.

[2] = tested on: MC 3T3 E1 cell (osteoblast); assay: Osteoblast proliferation in OK cell conditioned medium (OKM); format: cell-based; conditions: OK cells incubated 24 hours with compound, 80 μl medium on MC 3T3 E1, 3 days
Description: In this example, OK cells were used as the kidney tubular cell. OK cells at 6×10^4ml (3 ml) were added into 6 wells plate and various concentrations of flavonol, flavonol glycosides, apigenin and isokaempferol were applied. At the same time, the control culture medium (CM) with the same condition as above but without cells was prepared. After 24 hours incubation, the medium was collected for osteoblast culture. The OK cell growth was examined as discussed above. In this example, the osteoblast was the MC 3T3 E1 cell. MC 3T3 E1 at 1×10^5/ml (20 μl) was added into 96 wells plate. Additionally, 80 μL of OKM or CM were recruited. After 3 days incubation, the osteoblast growth was examined as discussed above. […] OK cells at 2×10^4/ml (0.1 ml) mixed with various concentrations of kaempferol were incubated in 96 well plate. The medium made of the same condition as above without OK cells was also incubated in the 96 well plates. After 24 hour, the mediums were collected. The OK cell growth was examined. MC 3T3 E1 cells at 1×10^5/ml (20 μl) were applied into 96 well plate along with OKM and CM (80 μl). After 3 days incubation, the cell numbers were examined. The preparation of OKM and CM: OK cells at 6×10^4/ml (3 ml) were incubated in 6 well plates over night. After the medium was removed, the fresh medium with or without 70 nM kaempferol was added. The control medium (CM) was prepared under the same condition, without OK cells. After incubation for 24 hour, all medium were collected for MC 3T3 E1 and HFF cell growth experiments. MC 3T3 E1 and HFF cell at 1×10^5/ml were added (20 μl) into 96 well plates. In addition, 80 μl of OKM, CM and fresh culture medium with and without kaempferol were applied.

[3] = tested on: human heart fibroblast (HHF/HFF); assay: Fibroblast proliferation in OK cell conditioned medium (OKM); format: cell-based; conditions: OK cells incubated 24 hours with compound; medium on human heart fibroblast; 3 days
Description: In this example, OK cells were used as the kidney tubular cell. OK cells at 6×10^4ml (3 ml) were added into 6 wells plate and various concentrations of flavonol, flavonol glycosides, apigenin and isokaempferol were applied. At the same time, the control culture medium (CM) with the same condition as above but without cells was prepared. After 24 hours incubation, the medium was collected for osteoblast culture. The OK cell growth was examined as discussed above. The preparation of OKM and CM: OK cells at 6×10^4/ml (3 ml) were incubated in 6 well plates over night. After the medium was removed, the fresh medium with or without 70 nM kaempferol was added. The control medium (CM) was prepared under the same condition, without OK cells. After incubation for 24 hour, all medium were collected for MC 3T3 E1 and HFF cell growth experiments. MC 3T3 E1 and HFF cell at 1×10^5/ml were added (20 μl) into 96 well plates. In addition, 80 μl of OKM, CM and fresh culture medium with and without kaempferol were applied.

[4] = tested on: MC 3T3 E1 cell (osteoblast); assay: Direct effect of compound on osteoblast proliferation; format: cell-based; conditions: medium incubated without kidney cells; 70 nM or various concentrations; 3 days
Description: (§1) OK cell, MC 3T3 E1 and HHF cells at 2×10^4/ml (0.1 ml) were added into 96 well plates, with various concentration of kaempferol was applied. After the cells were cultured for 3 days, cell growth was examined. The preparation of OKM and CM: OK cells at 6×10^4/ml (3 ml) were incubated in 6 well plates over night. After the medium was removed, the fresh medium with or without 70 nM kaempferol was added. The control medium (CM) was prepared under the same condition, without OK cells. After incubation for 24 hour, all medium were collected for MC 3T3 E1 and HFF cell growth experiments. MC 3T3 E1 and HFF cell at 1×10^5/ml were added (20 μl) into 96 well plates. In addition, 80 μl of OKM, CM and fresh culture medium with and without kaempferol were applied.

[5] = tested on: HHF cells (human heart fibroblast); assay: Direct effect of compound on fibroblast proliferation; format: cell-based; conditions: medium incubated without kidney cells; 70 nM kaempferol; 3 days
Description: as §1

[6] = tested on: BMPR II; assay: BMPR II on OK cells, immunostain and Western blot; format: cell-based, opossum
From the text: BMPR I was not found in OK cells sample, BMPR II was found on OK cell. […] Both FIGS. 6A and 6B indicate that kaempferol increases the quantity of BMPR II on OK cell.

[7] = tested on: BMP7; assay: BMP7 in kaempferol conditioned OKM, immune-precipitation and Western blot; format: cell-based, opossum; conditions: Western blot; not been repeated yet
From the text: (§2) Detail of Immune-Precipitation and Detail of Western Blot Used Standard Methods and Anti-BMP 2/4 and 7.

[8] = tested on: BMP2/4; assay: BMP2/4 in kaempferol conditioned OKM, immune-precipitation and Western blot; format: cell-based, opossum; conditions: Western blot; not been repeated yet
From the text: as §2

[9] = tested on: P63; assay: P63 (63 kDa protein) in kaempferol conditioned OKM, over-exposed anti-BMP2/4 Western blot; format: cell-based, opossum; conditions: over-exposed film; not been repeated yet
From the text: Detail of Immune-Precipitation and Detail of Western Blot Used Standard Methods and Anti-BMP 2/4 and 7. 3). […] According to the instruction from the manufacture, anti-BMP2/4 antibody may react with BMP8, 9 and 10 or other proteins. The P63 may be BMP 8, 9, 10 or another protein related to the BMP2/4.

[10] = tested on: MC 3T3 E1 cell (osteoblast); assay: Osteoblast proliferation in human kidney tubular cell (HK-2) conditioned medium (HKM); format: cell-based; conditions: HK-2 cells, 70 nM kaempferol, 24 hours; medium on MC 3T3 E1 for 3 days
Description: Human kidney tubular cells (HK-2) with the concentration at 1×10^5/ml (1 mL) grew in 24 well plate overnight. The cells in the wells were washed by 1 mL of PBS three times. Fresh culture medium (80 μL) without FBS but contained 0 and 70 nM kaempferol were added. The same medium without cells also prepared as above. After the samples were cultured for 24 hours, the medium was collected and named respectively 70 […] 0CM. They were used for osteoblast and fibroblast culture. MC 3T3 E1 and HFF cell at 1×10^5/ml were added (20 μl) into 96 wells plate. In addition, 80 μl of 70 […] 0CM were applied.

[11] = animal models; cited from earlier work
[12] = acute renal ischemia, unilateral uretheral obstruction, diabetic nephropathy, lupus nephritis models; cited from earlier work

In the case of `O=c1cc(-c2ccc(O)cc2)oc2cc(O)cc(O)c12` [Apigenin, apigenin], the “OK cell proliferation (optic density)” value [1] is reported as “did not increase OK cell proliferation”, the “OK cell proliferation (optic density)” value ([1]; listed as apigenin) is reported as “showed no effect” and the “osteoblast (MC 3T3 E1) proliferation in compound conditioned-OKM compared with control OKM” value (“osteoblast … compared with control OKM” below) [2] is reported as “did not increase osteoblast proliferation”. The “fibroblast proliferation in compound conditioned-OKM” value (“fibroblast proliferation” for short) [3] was “do not increase human heard fibroblast proliferation”.

With `COc1c(-c2ccc(O)cc2)oc2cc(O)cc(O)c2c1=O` [isokaempferol, kaempferol-3-methyl ether] the “OK cell proliferation (optic density)” value [1] was “did not increase OK cell proliferation”, the “OK cell proliferation (optic density)” value ([1]; listed as kaempferol-3-methyl ether) was “showed no effect” and the “osteoblast … compared with control OKM” value [2] was “did not increase osteoblast proliferation”. The “fibroblast proliferation” value [3] was “do not increase human heard fibroblast proliferation”.

In the case of `O=c1c(O)c(-c2ccc(O)cc2)oc2cc(O)cc(O)c12` [Kaempferol], the “OK cell proliferation (optic density)” value [1] is reported as “only increased OK cell proliferation”, the “OK cell proliferation (optic density)” value ([1]; listed as kaempferol) is reported as “significantly increased; also recorded: showed dose response aspect” and the “osteoblast … compared with control OKM” value [2] is reported as “increasing osteoblast proliferation with a dose response manner; also recorded: additionally promoted MC 3T3 E1 cell proliferation”. For the same molecule, the “osteoblast … compared with control OKM” value ([2]; listed as kaempferol) was “significantly increased compared with that in the control OKM”, the “fibroblast proliferation” value [3] was “also did not promote HHF cell proliferation” and the “MC 3T3 E1 proliferation in control medium (CM) or fresh medium containing compound” value [4] was “did not promote MC 3T3 E1 and HHF cell proliferation”. For the same molecule, the “fibroblast (HHF) proliferation in control medium (CM) or fresh medium containing compound” value [5] was “did not increase human fibroblast proliferation; also recorded: did not promote MC 3T3 E1 and HHF cell proliferation”, the “quantity of BMPR II on OK cells (Western blot)” value ([6]; Western blot with anti-BMPR II) was “increased the quantity of BMPR II on OK cells” and the “density of BMPR II on OK cells (immunostain)” value ([6]; immunostain with anti-BMP receptor II) was “increased the density of BMPR II on OK cells”. For the same molecule, the “quantity of BMP7 in OKM” value [7] was “increased by dose response of kaempferol; also recorded: increased in dose response to kaempferol concentration”, the “quantity of BMP2/4 in OKM” value [8] was “increased by dose response of kaempferol” and the “quantity of P63 in OKM” value [9] was “increased with dose response of kaempferol; also recorded: also increased with the dose of kaempferol”. The “MC 3T3 E1 proliferation in kaempferol conditioned HKM compared with 0HKM” value [10] was “increased the promotion; also recorded: additionally increases the promotion”.

B1: BMP-7: Bone Morphogenic Protein 7, secreted protein (protein, UniProt P18075 293-431, looked up)
Bone morphogenetic protein 7: STGSKQRSQNRSKTPKNQEALRMANVAENSSSDQRQACKKHELYVSFRDLGWQDWIIAPEGYAAYYCEGECAFPLNSYMNATNHAIVQTLVHFINPETVPKPCCAPTQLNAISVLYFDDSSNVILKKYRNMVVRACGCH
In the case of B1, the “effect on osteoporosis associated with renal failure” value [11] is given as “benefit” and the “prevention of renal failure” value [12] is given as “prevent renal failure”.
